In ChEMBL document CHEMBL1128754, “The SAR of 6-(N-alkyl-N-acyl)-2-propyl-3-[(2-tetrazol-5-yl)biphen-4-yl)methyl]-quinazolinones as balanced affinity antagonists of the human AT1 and AT2 receptors” (Bioorg Med Chem Lett, 1995):
Changes are numbered by the printed parent chain.

Experiments:
[1] = Bioavailability in dog (dose 3.0 mg/kg p.o.); assay type: ADME, organism-based, Canis lupus familiaris; settings: in vivo, po
[2] = target: T1, Angiotensin II receptor (AT-1) type-1 (Rattus norvegicus, UniProt P29089+P25095); test: Binding affinity against AT1 receptor in rat adrenal tissue; assay type: tissue-based
T1 sequence (P29089 whole entry): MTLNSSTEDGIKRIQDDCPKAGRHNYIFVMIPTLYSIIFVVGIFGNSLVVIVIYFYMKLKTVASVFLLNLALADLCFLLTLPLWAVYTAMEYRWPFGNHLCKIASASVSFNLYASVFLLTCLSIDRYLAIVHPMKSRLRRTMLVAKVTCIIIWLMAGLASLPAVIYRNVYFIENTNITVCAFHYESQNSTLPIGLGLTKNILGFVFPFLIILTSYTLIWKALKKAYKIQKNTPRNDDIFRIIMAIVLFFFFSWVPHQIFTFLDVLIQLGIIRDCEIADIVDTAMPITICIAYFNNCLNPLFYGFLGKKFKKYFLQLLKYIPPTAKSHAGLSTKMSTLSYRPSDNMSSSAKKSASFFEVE
T1 sequence (P25095 whole entry): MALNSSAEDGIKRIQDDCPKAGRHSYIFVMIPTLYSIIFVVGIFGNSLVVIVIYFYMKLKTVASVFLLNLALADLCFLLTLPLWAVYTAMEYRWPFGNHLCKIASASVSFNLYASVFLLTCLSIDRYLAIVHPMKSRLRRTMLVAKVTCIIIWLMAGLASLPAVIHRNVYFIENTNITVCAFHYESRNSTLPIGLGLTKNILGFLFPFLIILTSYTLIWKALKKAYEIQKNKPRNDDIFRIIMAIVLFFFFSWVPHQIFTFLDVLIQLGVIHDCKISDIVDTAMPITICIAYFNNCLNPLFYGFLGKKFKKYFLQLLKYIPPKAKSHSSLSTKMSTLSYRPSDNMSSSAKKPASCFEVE

[3] = target: Angiotensin II receptor (Homo sapiens) (UniProt P30556+P50052); test: Ratio of receptor binding affinity AT2/AT1 in human adrenal tissue in th+e presence of 2 mg/ml bovine serum albumin; assay type: protein assay
[4] = target: Angiotensin II receptor (Rattus norvegicus) (UniProt P29089+P25095+P35351); test: Ratio of receptor binding affinity AT2/AT1 in rat adrenal tissue
[5] = Bioavailability in dog (dose of 1.0 mg/kg i.v.) 0.5 hr; assay type: ADME, organism-based, Canis lupus familiaris; settings: in vivo, iv
Rattus norvegicus [6] = species on record: Rattus norvegicus; settings: dose 1 mg/kg; route intravenous
Rattus norvegicus [7] = species on record: Rattus norvegicus; settings: dose 1 mg/kg; route oral
physchem = settings: octanol/water
Description: Partition coefficient (logP)

[8] = target: T2, Type-1 angiotensin II receptor (Homo sapiens, UniProt P30556); test: biochemical
T2 sequence (P30556 whole entry): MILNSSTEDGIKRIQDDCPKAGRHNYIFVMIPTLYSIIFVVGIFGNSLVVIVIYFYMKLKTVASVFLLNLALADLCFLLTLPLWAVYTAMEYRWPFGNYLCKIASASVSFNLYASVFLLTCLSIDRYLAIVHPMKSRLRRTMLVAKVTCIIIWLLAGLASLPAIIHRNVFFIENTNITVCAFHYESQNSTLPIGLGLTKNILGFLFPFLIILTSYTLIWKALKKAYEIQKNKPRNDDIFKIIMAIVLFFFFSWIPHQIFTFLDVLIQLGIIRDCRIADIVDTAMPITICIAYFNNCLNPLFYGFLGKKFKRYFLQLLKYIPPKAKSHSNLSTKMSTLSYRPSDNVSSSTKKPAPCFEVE
Description: Binding affinity against AT1 receptor in human adrenal tissue

[9] = target: T3, Type-1 angiotensin II receptor (Oryctolagus cuniculus, UniProt P34976); test: biochemical
T3 sequence (P34976 whole entry): T2 sequence (P30556 whole entry) with I2M, V49A, I254V, I270V, R272H, R311K, T349S, A353V
Description: Binding affinity against AT1 receptor in rabbit aorta

bioavailability [1]: 56% | IC50 [2]: 0.3 nM | Ratio [3]: 1.3 | Ratio [4]: 2.1 | bioavailability [5]: 84% | logP (physchem): 3.4 | IC50 [8]: 0.9 nM | IC50 [9]: 1.7 nM
SMILES: Cn1nnnc1-c1ccccc1-c1ccc(Cn2cnc3ccc(N(Cc4cccnc4)C(=O)c4ccccc4)cc3c2=O)cc1
Duration (Rattus norvegicus [6]): >3 h | Duration (Rattus norvegicus [7]): >3 h
